Data reported in PubChem BioAssay AID1963432 (Molecular Pharmacology Branch, DTP, NCI, 2024).

System: SYO-1 complex spheroid growth, percent test/control
Experiment: Anticancer human tumor SYO-1 cell line growth inhibition [Asc];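 also: compound exposure lasted 7 days after spheroids grew 3 days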;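 as to viability, T/C: 100% = DMSO vehicle control viability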
Conditions: for IC50: curve of first compound; for viability, T/C: stronger effect = lower value
Outline: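 Spheroid model: tumor line + HUVEC + hMSC. Single agents and combinations; top conc. at/near clinical Cmax (10 microM if undetermined), half-log dilutions. DMSO stocks at 800-fold test concentration.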

C#Cc1c(F)ccc2cc(O)cc(-c3ncc4c(N5CC6CCC(C5)N6)nc(OCC56CCCN5CC(F)C6)nc4c3F)c12 (centres undefined) + CCN1C(C(=O)NC23CCC(C(=O)O)(CC2)CC3)C(c2cccc(Cl)c2F)C2(C(=O)Nc3cc(Cl)ccc32)C12CCCCC2
IC50 (second compound 0.00949 µM): > 10000 nM | IC50 (second compound 0.03 µM): > 10000 nM | IC50 (second compound 0.0949 µM): > 10000 nM | IC50 (second compound 0.3 µM): < 31.6 nM | IC50 (second compound 0.949 µM): < 31.6 nM | IC50 (second compound 3 µM): < 31.6 nM | viability, T/C (second compound 0.00949 µM, first compound 0.0316 µM): 113% | viability, T/C (second compound 0.00949 µM, first compound 0.1 µM): 95.3% | viability, T/C (second compound 0.00949 µM, first compound 0.316 µM): 101% | viability, T/C (second compound 0.00949 µM, first compound 1 µM): 98.1% | viability, T/C (second compound 0.00949 µM, first compound 3.16 µM): 113% | viability, T/C (second compound 0.00949 µM, first compound 10 µM): 112% | viability, T/C (second compound 0.03 µM, first compound 0.0316 µM): 99% | viability, T/C (second compound 0.03 µM, first compound 0.1 µM): 90.1% | viability, T/C (second compound 0.03 µM, first compound 0.316 µM): 97.2% | viability, T/C (second compound 0.03 µM, first compound 1 µM): 99.3% | viability, T/C (second compound 0.03 µM, first compound 3.16 µM): 105% | viability, T/C (second compound 0.03 µM, first compound 10 µM): 104% | viability, T/C (second compound 0.0949 µM, first compound 0.0316 µM): 84.8% | viability, T/C (second compound 0.0949 µM, first compound 0.1 µM): 81.2% | viability, T/C (second compound 0.0949 µM, first compound 0.316 µM): 88.3% | viability, T/C (second compound 0.0949 µM, first compound 1 µM): 85.8% | viability, T/C (second compound 0.0949 µM, first compound 3.16 µM): 86.8% | viability, T/C (second compound 0.0949 µM, first compound 10 µM): 79.7% | viability, T/C (second compound 0.3 µM, first compound 0.0316 µM): 26.7% | viability, T/C (second compound 0.3 µM, first compound 0.1 µM): 24.9% | viability, T/C (second compound 0.3 µM, first compound 0.316 µM): 21.6% | viability, T/C (second compound 0.3 µM, first compound 1 µM): 20.5% | viability, T/C (second compound 0.3 µM, first compound 3.16 µM): 21.6% | viability, T/C (second compound 0.3 µM, first compound 10 µM): 13.5% | viability, T/C (second compound 0.949 µM, first compound 0.0316 µM): 2.32% | viability, T/C (second compound 0.949 µM, first compound 0.1 µM): 3.19% | viability, T/C (second compound 0.949 µM, first compound 0.316 µM): 3.03% | viability, T/C (second compound 0.949 µM, first compound 1 µM): 3.66% | viability, T/C (second compound 0.949 µM, first compound 3.16 µM): 2.43% | viability, T/C (second compound 0.949 µM, first compound 10 µM): 0.85% | viability, T/C (second compound 3 µM, first compound 0.0316 µM): 1.29% | viability, T/C (second compound 3 µM, first compound 0.1 µM): 1.17% | viability, T/C (second compound 3 µM, first compound 0.316 µM): 1.63% | viability, T/C (second compound 3 µM, first compound 1 µM): 1.09% | viability, T/C (second compound 3 µM, first compound 3.16 µM): 0.91% | viability, T/C (second compound 3 µM, first compound 10 µM): 0.35%

Cc1nc(N2CCC3(CC2)COC(C)C3N)c(CO)nc1Sc1ccnc(N)c1Cl (centres undefined) + CCN1C(C(=O)NC23CCC(C(=O)O)(CC2)CC3)C(c2cccc(Cl)c2F)C2(C(=O)Nc3cc(Cl)ccc32)C12CCCCC2
IC50 (second compound 0.00949 µM): > 3000 nM | IC50 (second compound 0.03 µM): > 3000 nM | IC50 (second compound 0.0949 µM): > 3000 nM | IC50 (second compound 0.3 µM): < 9.49 nM | IC50 (second compound 0.949 µM): < 9.49 nM | IC50 (second compound 3 µM): < 9.49 nM | viability, T/C (second compound 0.00949 µM, first compound 0.00949 µM): 111% | viability, T/C (second compound 0.00949 µM, first compound 0.03 µM): 103% | viability, T/C (second compound 0.00949 µM, first compound 0.0949 µM): 112% | viability, T/C (second compound 0.00949 µM, first compound 0.3 µM): 109% | viability, T/C (second compound 0.00949 µM, first compound 0.949 µM): 116% | viability, T/C (second compound 0.00949 µM, first compound 3 µM): 114% | viability, T/C (second compound 0.03 µM, first compound 0.00949 µM): 111% | viability, T/C (second compound 0.03 µM, first compound 0.03 µM): 103% | viability, T/C (second compound 0.03 µM, first compound 0.0949 µM): 108% | viability, T/C (second compound 0.03 µM, first compound 0.3 µM): 99.7% | viability, T/C (second compound 0.03 µM, first compound 0.949 µM): 117% | viability, T/C (second compound 0.03 µM, first compound 3 µM): 117% | viability, T/C (second compound 0.0949 µM, first compound 0.00949 µM): 82.8% | viability, T/C (second compound 0.0949 µM, first compound 0.03 µM): 81.1% | viability, T/C (second compound 0.0949 µM, first compound 0.0949 µM): 86.8% | viability, T/C (second compound 0.0949 µM, first compound 0.3 µM): 91.2% | viability, T/C (second compound 0.0949 µM, first compound 0.949 µM): 96.9% | viability, T/C (second compound 0.0949 µM, first compound 3 µM): 83.3% | viability, T/C (second compound 0.3 µM, first compound 0.00949 µM): 24.3% | viability, T/C (second compound 0.3 µM, first compound 0.03 µM): 19.9% | viability, T/C (second compound 0.3 µM, first compound 0.0949 µM): 23.2% | viability, T/C (second compound 0.3 µM, first compound 0.3 µM): 17.4% | viability, T/C (second compound 0.3 µM, first compound 0.949 µM): 17.4% | viability, T/C (second compound 0.3 µM, first compound 3 µM): 10.9% | viability, T/C (second compound 0.949 µM, first compound 0.00949 µM): 3.59% | viability, T/C (second compound 0.949 µM, first compound 0.03 µM): 2.68% | viability, T/C (second compound 0.949 µM, first compound 0.0949 µM): 3.26% | viability, T/C (second compound 0.949 µM, first compound 0.3 µM): 1.67% | viability, T/C (second compound 0.949 µM, first compound 0.949 µM): 1.74% | viability, T/C (second compound 0.949 µM, first compound 3 µM): 0.54% | viability, T/C (second compound 3 µM, first compound 0.00949 µM): 0.99% | viability, T/C (second compound 3 µM, first compound 0.03 µM): 1.08% | viability, T/C (second compound 3 µM, first compound 0.0949 µM): 0.94% | viability, T/C (second compound 3 µM, first compound 0.3 µM): 2.3% | viability, T/C (second compound 3 µM, first compound 0.949 µM): 0.69% | viability, T/C (second compound 3 µM, first compound 3 µM): 0.39%
